Measurements reported in PMC10877733, “Discovery and Characterization of VU0542270, the First Selective Inhibitor of Vascular Kir6.1/SUR2B KATP Channels” (Molecular Pharmacology, 2024).
“Also recorded” adds a separate entry of the source.

How the values were obtained:
[1] = biological target: T1, Kir4.1 (Homo sapiens, UniProt P78508); experiment: Thallium flux selectivity assay Kir4.1; type: cell-based
T1 construct: expressed in transfected cells
T1 sequence (P78508 1-379): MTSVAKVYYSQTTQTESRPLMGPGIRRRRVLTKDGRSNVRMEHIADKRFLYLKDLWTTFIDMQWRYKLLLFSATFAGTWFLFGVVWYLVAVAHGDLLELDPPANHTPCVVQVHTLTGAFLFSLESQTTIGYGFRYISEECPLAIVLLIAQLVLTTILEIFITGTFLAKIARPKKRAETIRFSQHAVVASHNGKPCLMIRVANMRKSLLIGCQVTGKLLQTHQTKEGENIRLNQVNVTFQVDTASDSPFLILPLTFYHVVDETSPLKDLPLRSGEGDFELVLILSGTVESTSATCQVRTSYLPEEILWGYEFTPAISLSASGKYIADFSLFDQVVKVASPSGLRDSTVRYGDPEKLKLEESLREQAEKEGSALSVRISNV
Experimental: (§1) Quantitative thallium flux assays of Kir6.1/SUR2B activity were performed essentially as described previously for Kir6.2/SUR1 ([Raphemot et al., 2014]; [Kharade et al., 2019]). Stable T-Rex-HEK293-Kir6.1/SUR2B cells or transiently transfected HEK293T cells were plated in polyamine-coated, clear-bottomed, black-walled 384-well plates and were cultured (37°C/5% CO2) overnight in Dulbecco’s modified Eagle’s medium (Gibco, Carlsbad, CA, 11995-065) containing 10% FBS (2 mM Penicillin-Streptomycin). The following day, cells were washed with assay buffer (i.e., Hanks’ balanced salt solution/20 mM HEPES) and loaded for 1 hour with thallium sensor dye Brilliant Thallium (Ion Bioscience, San Marcos, TX) at room temperature. Dye-loaded cells were washed with assay buffer and transferred to a Panoptic Kinetic Imaging Plate Reader (Wavefront Bioscience, Franklin, TN). Control and test compound treatments were for 4 minutes prior to adding 0.5 mM chloride-free thallium stimulus buffer (Ion Bioscience) to initiate thallium flux. […] Selectivity assays against other Kir channels were performed essentially as described previously ([Kharade et al., 2018]; [McClenahan et al., 2022]).

[2] = biological target: T2, Kir6.2/SUR1 (Homo sapiens, UniProt Q09428); experiment: Thallium flux assay of Kir6.2/SUR1 in HEK293 cells; type: cell-based
T2 construct: expressed in transfected cells; also transiently transfected HEK293T
T2 sequence (Q09428 whole entry, species assumed): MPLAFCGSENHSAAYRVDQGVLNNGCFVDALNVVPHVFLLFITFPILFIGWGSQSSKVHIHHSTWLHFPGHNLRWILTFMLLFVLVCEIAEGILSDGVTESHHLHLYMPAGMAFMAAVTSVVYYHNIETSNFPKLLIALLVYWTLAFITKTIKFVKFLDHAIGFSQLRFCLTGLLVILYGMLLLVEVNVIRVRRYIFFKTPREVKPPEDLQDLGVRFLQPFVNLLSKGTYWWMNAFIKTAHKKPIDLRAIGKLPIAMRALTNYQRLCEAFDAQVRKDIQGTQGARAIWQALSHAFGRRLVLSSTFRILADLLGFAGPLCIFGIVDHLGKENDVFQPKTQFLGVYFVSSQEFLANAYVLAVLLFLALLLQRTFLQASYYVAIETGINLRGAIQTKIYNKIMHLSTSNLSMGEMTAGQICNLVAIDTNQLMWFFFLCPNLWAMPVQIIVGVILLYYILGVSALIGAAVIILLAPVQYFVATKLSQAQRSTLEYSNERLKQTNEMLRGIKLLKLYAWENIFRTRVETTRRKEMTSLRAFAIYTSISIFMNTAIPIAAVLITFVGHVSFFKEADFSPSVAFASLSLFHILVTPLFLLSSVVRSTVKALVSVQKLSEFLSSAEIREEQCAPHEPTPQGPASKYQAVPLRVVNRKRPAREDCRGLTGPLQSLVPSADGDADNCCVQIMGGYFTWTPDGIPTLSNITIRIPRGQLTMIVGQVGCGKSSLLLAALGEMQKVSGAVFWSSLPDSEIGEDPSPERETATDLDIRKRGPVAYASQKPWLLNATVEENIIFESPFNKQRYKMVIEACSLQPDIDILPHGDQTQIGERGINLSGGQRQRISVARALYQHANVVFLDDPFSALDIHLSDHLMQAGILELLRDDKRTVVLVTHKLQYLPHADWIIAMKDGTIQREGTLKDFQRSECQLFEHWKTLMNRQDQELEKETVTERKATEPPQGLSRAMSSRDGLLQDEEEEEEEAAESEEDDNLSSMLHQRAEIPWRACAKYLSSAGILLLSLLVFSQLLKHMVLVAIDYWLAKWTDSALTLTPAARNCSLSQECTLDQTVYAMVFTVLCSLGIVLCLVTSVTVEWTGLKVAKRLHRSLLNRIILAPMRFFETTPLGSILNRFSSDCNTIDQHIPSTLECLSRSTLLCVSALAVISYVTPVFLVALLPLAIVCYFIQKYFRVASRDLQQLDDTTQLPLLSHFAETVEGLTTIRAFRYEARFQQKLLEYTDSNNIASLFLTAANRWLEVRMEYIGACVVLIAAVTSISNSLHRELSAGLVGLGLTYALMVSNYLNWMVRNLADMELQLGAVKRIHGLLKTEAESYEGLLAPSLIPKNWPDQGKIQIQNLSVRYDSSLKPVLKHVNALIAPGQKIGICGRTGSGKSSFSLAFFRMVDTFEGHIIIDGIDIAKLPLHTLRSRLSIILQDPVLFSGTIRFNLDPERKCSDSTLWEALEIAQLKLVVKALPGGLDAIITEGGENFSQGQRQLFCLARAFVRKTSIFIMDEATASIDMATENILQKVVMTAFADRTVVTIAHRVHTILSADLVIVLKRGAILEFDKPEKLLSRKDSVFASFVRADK
T2 sequence (Q14654 whole entry partner, species assumed): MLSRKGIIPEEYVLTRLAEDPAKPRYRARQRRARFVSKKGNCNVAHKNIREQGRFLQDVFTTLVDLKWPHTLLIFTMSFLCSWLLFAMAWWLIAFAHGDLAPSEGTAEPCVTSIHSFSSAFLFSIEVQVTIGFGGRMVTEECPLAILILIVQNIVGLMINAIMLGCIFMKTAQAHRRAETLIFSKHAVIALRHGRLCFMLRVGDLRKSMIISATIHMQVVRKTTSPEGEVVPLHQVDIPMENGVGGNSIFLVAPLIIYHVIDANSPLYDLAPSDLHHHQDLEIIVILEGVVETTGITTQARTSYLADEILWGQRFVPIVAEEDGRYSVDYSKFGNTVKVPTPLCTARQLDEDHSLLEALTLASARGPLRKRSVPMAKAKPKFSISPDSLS
Experimental: The pcDNA3.1-SUR2B plasmid was generously provided by Dr. Colin Nichols (Washington University). The pcDNA5/TO-Kir6.1 plasmid was synthesized by GenScript. […] For selectivity assays, HEK293T cells were cotransfected with Kir6.x and SURX with Lipofectamine LTX and incubated for 48 hours before thallium flux assays.
Stable T-Rex-HEK293-Kir6.1/SUR2B cells or transiently transfected HEK293T cells were plated in polyamine-coated, clear-bottomed, black-walled 384-well plates and were cultured (37°C/5% CO2) overnight in Dulbecco’s modified Eagle’s medium (Gibco, Carlsbad, CA, 11995-065) containing 10% FBS (2 mM Penicillin-Streptomycin). The following day, cells were washed with assay buffer (i.e., Hanks’ balanced salt solution/20 mM HEPES) and loaded for 1 hour with thallium sensor dye Brilliant Thallium (Ion Bioscience, San Marcos, TX) at room temperature. Dye-loaded cells were washed with assay buffer and transferred to a Panoptic Kinetic Imaging Plate Reader (Wavefront Bioscience, Franklin, TN). Control and test compound treatments were for 4 minutes prior to adding 0.5 mM chloride-free thallium stimulus buffer (Ion Bioscience) to initiate thallium flux.

[3] = tested on: isolated mouse ductus arteriosus vessels; experiment: Pressure myography of isolated ductus arteriosus vessels; details: term gestation mouse DA
Experimental: CD-1 mice were maintained at Vanderbilt University Medical Center in accordance with protocols approved by the Institutional Animal Care and Use Committee. Timed matings were performed to produce offspring at specific stages of development. The presence of a vaginal plug was designated as embryonic day 1.
Term-gestation (embryonic day 19) fetal mouse DAs were isolated and mounted on glass pipet tips in microvessel perfusion chambers as previously reported ([Hooper et al., 2016]). Deoxygenated Krebs buffer was warmed to 37°C and circulated throughout the chamber. Vessels were pressurized in a stepwise manner to physiologic neonatal mouse mean arterial pressure (20 mmHg) and then challenged with 50 mM KCl to test reactivity. […] For dose-response studies, vessels were first dilated by circulating Krebs buffer bubbled with 95% nitrogen, 5% CO2 to mimic the hypoxic conditions of the womb. […] Following each dose, lumen diameters were allowed to plateau (approximately 20 minutes) before the next dose was added. Continuous lumen diameter measurements were recorded using a digital image capture system (IonOptix). An N of >6 vessels from at least three different litters was used for each experimental condition. Changes in lumen diameter are represented as the percent change in diameter compared with the baseline lumen diameter of vessels prior to drug exposure. […] Values represent mean ± S.D.

[4] = tested on: nine other members of the Kir channel family; experiment: Thallium assays, panel of nine other members of the Kir channel family; type: cell-based; details: read-out: IC50 against panel of nine other Kir channel family members
Experimental: as §1

[5] = Plasma binding by equilibrium dialysis, mouse; type: in vitro ADME; details: equilibrium dialysis 6 hours 37°C, read-out: Fu, plasma (mouse)
Experimental: Determination of VU0542270 fraction unbound (fu) in plasma from mouse, rat, and human was conducted in vitro via equilibrium dialysis using high-throughput dialysis (HTD) membrane plates. Dialysis membranes (four paired strips per HTD assay) were hydrated as described by the manufacturer and inserted into the HTD plate, which was assembled and prepared for sample addition by the dispensing of blank buffer [Delbecco’s phosphate buffered saline (DPBS), 100 µL/well] into the “top half” of each membrane-split well. VU0542270 was diluted into plasma from each species (5 µM final concentration), which was aliquoted in triplicate to the “bottom half” of the prepared HTD plate wells. The HTD plate was sealed and incubated for 6 hours at 37°C. Following incubation, each well (both top and bottom halves) was transferred (20 µL) to the corresponding well of a 96-shallow-well (V-bottom) plate. […]
fu was calculated as (analyte to IS mass spectrometry (MS) peak area ratio from Trans-buffer side)/(analyte to IS MS peak area ratio from Cis-plasma side). Mean values for each species were calculated from three replicates.

IC50 [1]: > 30 µM
activity toward Kir6.2/SUR1 ([2]; doses up to 30 µM): no apparent activity
IC50 ([2]; thallium flux, Table 1 selectivity profile): > 30 µM
Kir6.2/SUR1 IC50, ATP depletion ([2]; thallium flux, transfected HEK-293 cells, channels activated by metabolic inhibition (ATP depletion) (Fig. 4B)): failed to inhibit; also recorded: no fit
Kir6.2/SUR1 IC50, VU0071063 activation ([2]; thallium flux, transfected HEK-293 cells, channels activated with VU0071063 (Fig. 4A)): failed to inhibit; also recorded: no fit
IC50 [4]: > 30 µM
fraction unbound at 6 h, 5 µM [5]: 0.01
SMILES: Cc1nc(-c2cccs2)sc1CNC(=O)Nc1cccs1 [VU0542270]
ductus arteriosus vessel constriction ([3]; increasing concentrations, compound alone): induced ductus arteriosus constriction in a dose-dependent manner; also recorded: constricted in a concentration-dependent manner
ductus arteriosus vessel constriction in the presence of pinacidil ([3]; with 10 µM pinacidil): substantially blunted vasoconstrictive effects
